# PMC7054760, “Structural and biochemical evaluation of bisubstrate inhibitors of protein arginine N-methyltransferases PRMT1 and CARM1 (PRMT4)” (Biochemical Journal, 2020)
# Changes are numbered by the printed parent chain. Like-named read-outs stand apart in the source and are kept apart here.
# Columns and labels:
# other methyltransferases = system: other methyltransferases; parameters: method as in PMID 29719619; details: cited from earlier work
# CARM1 = details: cited from earlier work
# [1] = system: multiple myeloma xenograft model; parameters: method as in PMID 29269946; details: cited from earlier work
# CARM1_135–479 = target: T1, CARM1_135–479 (Homo sapiens, UniProt Q86X55); test: Radiometric methylation assay, CARM1 with H3(3–31) and [methyl-3H]-SAM; assay type: biochemical; details: 320 nM CARM1, 120 µM H3(3–31), 0.23 µM [3H]-SAM; read-out: IC50 (95% confidence interval), CARM1
# T1 construct: human CARM1, residues 135 to 479; MBP (N, cleaved yes); linker and TEV site […]; (N, cleaved yes); made in house; host or cells: E. coli BL21-CodonPlus (DE3)-RIL
# T1 sequence (Q86X55 135-479): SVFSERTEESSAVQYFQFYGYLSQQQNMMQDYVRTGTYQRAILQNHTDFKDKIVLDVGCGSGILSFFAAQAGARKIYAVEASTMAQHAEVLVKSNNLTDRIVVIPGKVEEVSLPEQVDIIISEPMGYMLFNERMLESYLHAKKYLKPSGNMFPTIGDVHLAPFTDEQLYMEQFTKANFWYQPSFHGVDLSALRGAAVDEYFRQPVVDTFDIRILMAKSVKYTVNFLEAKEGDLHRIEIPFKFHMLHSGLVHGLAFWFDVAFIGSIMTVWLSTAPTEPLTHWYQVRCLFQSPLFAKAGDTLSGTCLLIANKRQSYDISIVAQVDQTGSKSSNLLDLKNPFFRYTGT
# Protocol: (§1) The reactions were initiated by addition of adenosyl-L-methionine, S-[methyl-^3H] and incubated at 30°C after mixing. After 60 min, optimised for signal to noise ratio in the linear region, each reaction mixture was transferred by pipette onto a P81 phosphocellulose paper square (PerkinElmer) and immediately immersed in a stirred solution of trichloroacetic acid (10% w/v). The phosphocellulose squares were washed for 3 × 10 min, replacing the 10% trichloroacetic acid after each wash. […] Incorporation of tritium into the histone substrate was determined by liquid scintillation counting. For each inhibition series, a no-substrate control reaction was included, which contained water in place of the histone substrate. […] These control samples were also run in duplicate.
# (§2) Data were analysed in GraphPad Prism 7 and fit using non-linear regression using the ‘log(inhibitor) vs. response — variable slope (four parameters)’ function with no constraints.
# CARM1 N161E = target: T2, CARM1 N161E (Homo sapiens, UniProt Q86X55, N161E); test: ITC with CARM1 N161E mutant
# T2 sequence (Q86X55 135-479 N161E): T1 sequence (Q86X55 135-479) with N27E
# Protocol: (§3) Data analysis was carried out using MicroCal PEAQ-ITC Analysis Software. […] The control heats of dilution were subtracted from binding experiments prior to curve fitting using a one-site binding model with fitted offset. […] Protein concentrations were determined by UV absorbance at 280 nm (with a NanoDrop 1000 v3.7) using extinction coefficients at 280 nm determined by the ExPASy ProtParam online tool. […] Inhibitor concentrations were determined as for activity assays.
# [2] = target: T3, human CARM1 (CARM1_135–479) (Homo sapiens, UniProt Q86X55); test: Isothermal titration calorimetry (ITC) with CARM1 catalytic domain; assay type: binding; details: ITC; for -T∆S, CARM1: calculated indirectly; for ∆G, CARM1: calculated indirectly from best-fit Kd and ∆H
# T3 sequence (Q86X55 135-479): T1 sequence (Q86X55 135-479)
# Protocol: After 20 h, cells were harvested by centrifugation, resuspended in 50 mM Tris, 300 mM NaCl, 20 mM imidazole, 5% v/v glycerol at a pH of 7.5 (buffer A), lysed by sonication, and the lysate clarified by centrifugation. […] The protein was concentrated to ∼1 mg/ml and cleaved with TEV protease to remove the MBP tag. The cleaved protein was then separated from TEV protease and the MBP tag by gel filtration (HiLoad Superdex S200 16/60 PG, GE Healthcare), fractions containing the protein concentrated and 1 mg/ml aliquots either used directly or flash frozen and stored at −80°C until further use. Approximately 0.2 mg CARM1 catalytic domain was obtained per litre of bacterial culture.
# as §3
# [3] = target: human PRMT1 (PRMT1_22–361) (Homo sapiens, UniProt Q99873); test: Isothermal titration calorimetry (ITC) with PRMT1; assay type: binding
# human PRMT1 (PRMT1_22–361), sequence (Q99873 32-371): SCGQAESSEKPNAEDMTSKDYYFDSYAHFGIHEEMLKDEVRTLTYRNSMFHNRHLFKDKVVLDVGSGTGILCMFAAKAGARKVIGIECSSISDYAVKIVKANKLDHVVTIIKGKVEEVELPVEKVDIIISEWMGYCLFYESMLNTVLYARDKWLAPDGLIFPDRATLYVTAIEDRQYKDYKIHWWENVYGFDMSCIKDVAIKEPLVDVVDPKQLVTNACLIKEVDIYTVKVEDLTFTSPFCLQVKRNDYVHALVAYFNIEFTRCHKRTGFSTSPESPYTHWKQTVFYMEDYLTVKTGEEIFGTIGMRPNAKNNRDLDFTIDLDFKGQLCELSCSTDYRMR
# Protocol: as §3
# PRMT1_22–361 = PRMT1_22–361 (Homo sapiens, UniProt Q99873); test: Radiometric methylation assay, PRMT1 with H4(1–21) and [methyl-3H]-SAM; assay type: biochemical; details: 160 nM PRMT1, 40 µM H4(1–21), 0.23 µM [3H]-SAM, 30°C, 60 min; read-out: IC50 (95% confidence interval), PRMT1
# PRMT1_22–361, sequence (Q99873 32-371): as above
# Protocol: as §1, §2
# [4] = 25°C, read-out: Kd ± standard error, CARM1
SMILES,IC50 (CARM1_135–479) [µM],"N (stoichiometry) ± standard error from curve fitting, CARM1 [2]","∆H ± standard error from curve fitting, CARM1 [2] [kcal/mol]","Kd [2, 4] [µM]","-T∆S, CARM1 [2] [kcal/mol]","∆G, CARM1 [2] [kcal/mol]",further results
CNC[C@@H](O)COc1ccc(Cl)c(-c2nc(-c3c(C)noc3C)c(C)c(N3CC4(CCN(C(=O)OC)CC4)C3)n2)c1 [EPZ022302/EZM2302],,,,,,,Anti-tumour activity in vivo [1]: anti-tumour activity in vivo; IC50 (CARM1; read-out: CARM1 inhibitor potency): […]
N=C(N)NCCCCCN(CC[C@H](N)C(=O)O)C[C@H]1O[C@@H](n2cnc3c(N)ncnc32)[C@H](O)[C@@H]1O [Inhibitor 7],24.1,0.648 ± 0.032,-18.6 ± 2.31,38.1 ± 9.61,12.5,-6.02,"Kd (CARM1 N161E): 8.18 ± 0.482 µM; Kd ([2]; Table 2, wild-type, read-out: Kd ± standard error from curve fitting, CARM1 WT): 38.1 ± 9.61 µM"
N=C(N)NCCCN(CCCN)C[C@H]1O[C@@H](n2cnc3c(N)ncnc32)[C@H](O)[C@@H]1O [Inhibitor 4],2.3,0.481 ± 0.0062,-24.6 ± 0.633,3.32 ± 0.335,17.2,-7.48,"N (stoichiometry) ± standard error from curve fitting, PRMT1 [3]: 0.519 ± 0.0082; ∆H ± standard error from curve fitting, PRMT1 ([3]; 10: competition experiment): -16 ± 0.77 kcal/mol; Kd ([3]; 25°C, direct titration, 7: stoichiometry fixed to 0.5, read-out: Kd ± standard error, PRMT1): 10.2 ± 0.996 µM; ∆G, PRMT1 ([3]; calculated indirectly from best-fit Kd and ∆H, 10: competition experiment): -6.81 kcal/mol; -T∆S, PRMT1 ([3]; calculated indirectly, 10: competition experiment): 9.2 kcal/mol; IC50 (PRMT1_22–361): 7.2 µM"
